The source of these data is PMC9603178, “Human Claudin-Derived Peptides Block the Membrane Fusion Process of Zika Virus and Are Broad Flavivirus Inhibitors” (Microbiology Spectrum, 2022).

Where a SMILES comes first, the peptide text is derived from it. Where no end group is shown, it is not given here. [ ]: non-standard residue; d: D form.

For one data set, the system named is ZIKV E-mediated fusion. Format: cell-based, Zika virus. The note with it: C6/36 infected with ZIKV MOI of 2 for 48 h, acidification 2 h, fusion index.
Data set [1] deals with ZIKV. The note with it: for IC50: read-out: IC50, ZIKV infection in hCMEC/D3, ZIKV MOI of 1, hCMEC/D3, fitted dose-response model, R^2 0.9 (CL1.1) and 0.7 (CL7.1).
The test system of data set [2] is ZIKV. In words: ZIKV replication and production in TrHBMEC, HUVEC, A549 and HEK 293T cells. Format: cell-based, Zika virus. The following applies: 50 μM peptide, MOI of 1, HUVEC, RT-qPCR and titration.
The test system of data set [3] is ZIKV. In words: ZIKV viral production, supernatants of infected hCMEC/D3 cells titrated on Vero E6 cells. Format: cell-based, Zika virus. The note with it: 50 μM peptide, MOI of 1, titrated on Vero E6.
Data set [4] concerns ZIKV. In words: ZIKV internalization assay in hCMEC/D3 cells. The class given is cell-based, Zika virus. The following applies: 2 h at 37°C.
In data set [5] the test system is ZIKV (Brazil/2016/INMI1 strain). In words: Dose-dependent effect on ZIKV infection of Vero E6 cells. Format: cell-based, Zika virus. The following applies: MOI of 1, Brazil/2016/INMI1 strain, fitted dose-response model. How it is done:
FIG 4 Amphipathicity was involved in the differences in potency between claudin-derived peptides. […] Three amino acids of interest at positions 11, 15, and 18 are indicated. (B) Sequences of the parental and modified peptides. The swapped amino acids are highlighted. (C) ZIKV (MOI of 1) was treated with 50 μM of the modified peptides described in (B) for 1 h. […] Left or right orientations of the helixes are indicated with an arrow and the hydrophobic faces of each peptide are shown with a black line. […] The dark line represents the fitted dose-response model for each peptide and the light area represents the 95% confidence interval of the model. The calculated IC50 is indicated.
A D-enantiomer of an alpha helix forms a mirrored left-handed helix (Fig. 4D) but retains the same physicochemical properties ([28]).

In data set [6] the test system is ZIKV. In words: ZIKV binding assay on hCMEC/D3 cells. Format: cell-based, Zika virus.
A further data set deals with Caco-2 epithelial cells. The following applies: 50 μM, differentiated Caco-2 monolayers on Transwell, over 24 h, n = 3.
The subject of the next data set is HCV. Also noted: method as in PMID 22378192. The following applies: Huh7.5.1 cells; cited from earlier work.
A further data set concerns SARS-CoV-2. The class given is cell-based. The note with it: 50 μM, Vero E6 cells, MOI of 1, 72 h, flow cytometry.
Data set [7] relates to ZIKV. In words: Pretreatment of hCMEC/D3 cells with peptide before ZIKV infection. The following applies: 10 μM for 1 h, cells washed, then ZIKV MOI of 1 for 48 h, hCMEC/D3, RT-qPCR. For orientation: Quantitative PCR measures a nucleic acid by following its amplification.
The test system of another data set is HIV-1. The following applies: 50 μM, human primary CD4+ T cells, 72 h, flow cytometry. On the technique in general: A flow cytometer gives signals particle by particle.
Data set [8] deals with ZIKV. In words: Treatment of concentrated ZIKV stock followed by 30-fold dilution and infection of hCMEC/D3. The note with it: ZIKV stock 1.5 × 10^7 PFU/mL treated with 10 μM for 1 h, diluted by a factor of 30, hCMEC/D3, 48 h.

For the compound MANSGLQLLGFSMALLGW [CL7.1], the “reduction of syncytium formation / fusion” value in the data set on ZIKV E-mediated fusion (50 μM) stood at 40%. Further, the “reduction of viral RNA levels compared to untreated cells” value in the data set on ZIKV [1] (50 μM peptide, inoculum treated 1 h, adsorption 2 h, MOI of 1, peptide kept 48 h, hCMEC/D3, RT-qPCR) is 2 fold. Moreover, the “antiviral activity in the absence of pretreatment” value in the data set on ZIKV [1] (50 μM, virus and peptide added simultaneously to the cell culture, hCMEC/D3) was “also detected”. Also, the IC50 in the data set with ZIKV [1] was 53 ± 13 µM. Further, in the data set on ZIKV [2], the “ZIKV replication and production” value is given as “significantly reduced”. In the data set on ZIKV [3], the “viral production (infectious particles in supernatants)” value is “significantly reduced”.

Turning to `O=C(N/N=C/c1ccc(O)c(O)c1)c1cc2ccccc2cc1O` [Dynasore, reference compound], the “reduction of viral internalization” value in the data set with ZIKV [4] (100 μM, positive control, hCMEC/D3) stood at 95%.

As for `CC[C@@H](C)[C@@H](NC(=O)[C@@H](Cc1ccccc1)NC(=O)CNC(=O)[C@@H](CC(C)C)NC(=O)[C@@H](CC(C)C)NC(=O)[C@@H](CCC(N)=O)NC(=O)[C@@H](CC(C)C)NC(=O)CNC(=O)[C@@H](C)NC(=O)[C@@H](CC(N)=O)NC(=O)[C@@H](C)NC(=O)[C@H](N)CCSC)C(=O)N[C@H](CC(C)C)C(=O)N[C@H](C)C(=O)N[C@H](Cc1ccccc1)C(=O)N[C@H](CC(C)C)C(=O)NCC(=O)N[C@H](Cc1c[nH]c2ccccc12)C(=O)O` [D-CL1.1] (H-[dM][dA][dN][dA]G[dL][dQ][dL][dL]G[dF][dI][dL][dA][dF][dL]G[dW]-OH; N-terminus and C-terminus assumed), in the data set on JEV, the “antiviral properties against JEV compared with CL1.1” value is “comparable to that of CL1.1”. In addition, the “antiviral properties against YFV compared with CL1.1” value in the data set with YFV (Vero E6, MOI of 1, increasing concentrations (Fig. S6)) was “comparable to that of CL1.1”. For the same compound, the IC50 in [5] was 0.67 ± 0.04 µM.

With Heparin [reference compound], in the data set with ZIKV [6] (200 μg/mL, positive control, 1 h at 4°C, MOI of 10, hCMEC/D3), the “reduction of viral binding” value is on record as 80%.

Regarding MANAGLQLLGFILAFLGW [CL1.1], the “reduction of syncytium formation” value in the data set on ZIKV E-mediated fusion (10 μM) is given as 80%. For the same compound, the electric transepithelial resistance entry in the data set with Caco-2 epithelial cells was “did not alter”. For the same compound, in the data set on HCV, the “antiviral activity against HCV infection” value is “exhibited antiviral activity”. Further, the “antiviral activity against SARS-CoV-2 infection” value with SARS-CoV-2 is reported as “No antiviral activity”. In addition, the “intracellular viral RNA levels / impact on ZIKV infection” value in the data set on ZIKV [1] (50 μM peptide, hCMEC/D3, MOI of 1, 48 h, RT-qPCR) was “below the threshold of detection”. For the same compound, the IC50 in the data set on ZIKV [1] is approximately 0.87 µM; in the data set with YFV (read-out: IC50, YFV, Vero E6, MOI of 1, YFV/17D strain, titration of supernatants), 0.56 ± 0.05 µM; in data set [5], 0.71 ± 0.05 µM. For the same compound, the “ZIKV replication and production” value with ZIKV [2] is “undetectable”. For the same compound, in the data set on ZIKV [4] (10 μM, trypsin removal of surface virus, RT-qPCR), the “ZIKV internalization in hCMEC/D3 cells” value is given as “did not alter”. Moreover, the “viral production (infectious particles in supernatants)” value with ZIKV [3] is given as “below the detection limit of the assay”. The “cell susceptibility to ZIKV after pretreatment of cells” value with ZIKV [7] is “did not affect cell susceptibility to ZIKV”. Besides, the “antiviral activity against HIV-1 infection” value in the data set on HIV-1 is “No antiviral activity”. Besides, in the data set on ZIKV [8], the “reduction of intracellular viral RNA levels” value is listed as 80%. Also, the “binding of ZIKV to hCMEC/D3 cells” value with ZIKV [6] (10 μM, inoculum treated 1 h, adsorption 1 h at 4°C, MOI of 10, RT-qPCR) is listed as “did not alter”.
